Measurements from patent US10703746B2, “Mutant IDH1 inhibitors useful for treating cancer” (THE UNITED STATES OF AMERICA, AS REPRESENTED BY THE …, priority 2014, dated 2020).

Tests used:
IDH1 R132H = IDH1 R132H (Homo sapiens, UniProt O75874, R132H); experiment: IDH1 R132H enzymatic assay (NADPH depletion coupled to diaphorase/resazurin); format: biochemical
IDH1 R132C = IDH1 R132C (Homo sapiens, UniProt O75874, R132C); experiment: IDH1 R132C enzymatic assay (NADPH depletion coupled to diaphorase/resazurin); format: biochemical
Summary of the method: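 NADPH depletion, read via diaphorase/resazurin coupling, after adding substrate at 0.6 mM α-KG and 0.012 mM NADPH. Beforehand, 0.00032 mg/mL enzyme sat with compound 30 min at room temperature in pH 6.5 potassium phosphate buffer with MgCl2, glycerol and BSA.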

[1] = IDH1 R132H enzymatic inhibition, IC50 class
[2] = IDH1 R132C enzymatic inhibition, IC50 class
[3] = enzymatic inhibition, IDH1 R132H
[4] = enzymatic inhibition, IDH1 R132C

Sequence of IDH1 R132C (O75874 whole entry R132C): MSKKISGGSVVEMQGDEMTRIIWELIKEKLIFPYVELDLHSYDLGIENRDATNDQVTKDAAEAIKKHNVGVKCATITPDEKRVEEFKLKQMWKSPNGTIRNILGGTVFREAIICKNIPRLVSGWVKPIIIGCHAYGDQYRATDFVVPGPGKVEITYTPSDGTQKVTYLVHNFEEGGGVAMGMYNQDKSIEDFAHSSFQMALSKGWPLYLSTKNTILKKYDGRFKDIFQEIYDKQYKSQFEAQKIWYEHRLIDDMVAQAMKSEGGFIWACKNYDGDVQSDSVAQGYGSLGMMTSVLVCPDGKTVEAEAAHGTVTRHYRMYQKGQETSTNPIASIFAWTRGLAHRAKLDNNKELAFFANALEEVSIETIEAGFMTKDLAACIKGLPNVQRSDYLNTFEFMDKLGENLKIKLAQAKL
Sequence of IDH1 R132H (O75874 whole entry R132H): as the sequence (O75874 whole entry R132C) above, with C132H counted along it

Structure (SMILES)	IC50 (IDH1 R132H; [1]) [nM]	IC50 (IDH1 R132C; [2]) [nM]	IC50 (IDH1 R132H; [3]) [nM]	IC50 (IDH1 R132C; [4]) [nM]
CCc1cccc(CC)c1-n1c(C=C(C)C)c(C(=O)N2CCNC(C)C2)cc(-c2nc(-c3ccc(Cl)cc3)cs2)c1=O (centres unmarked) [Compound 370]	< 300	< 300		
CCc1cccc(CC)c1-n1c(C=C(C)C)c(C(=O)N2CCNC(CCO)C2)cc(-c2nc(-c3ccc(Cl)cc3)cs2)c1=O (centres unmarked) [Compound 371]	< 300	< 300		
CC(C)=Cc1c(C(=O)N2CCNCC2)cc(-c2nc(-c3ccc(Cl)cc3)cs2)c(=O)n1-c1ccccc1C(C)(C)C [Compound 372]	< 300	< 300		
CCc1cccc(CC)c1-n1c(CCC(F)(F)F)c(C(=O)N2CCNCC2)cc(-c2nc(-c3ccc(Cl)cc3)cs2)c1=O [Compound 373]	300 to 1000	300 to 1000		
CCOc1cccc(Cl)c1-n1c(C=C(C)C)c(C(=O)N2CCNCC2)cc(-c2nc(-c3ccc(Cl)cc3)cs2)c1=O [Compound 374]	< 300	< 300		
COc1cccc(C)c1-n1c2c(cc(-c3nc(-c4ccc(Cl)cc4)cs3)c1=O)C(=O)CCC2 [Compound 375]	1000 to 5000	1000 to 5000		
CCOc1ccc(F)cc1-n1c(C=C(C)C)c(C(=O)N2CCNCC2)cc(-c2nc(-c3ccc(C(F)F)cc3)cs2)c1=O [Compound 376]	< 300	< 300		
CCc1cccc(CC)c1-n1c(C=C(C)C)c(C(=O)N2CCNCC2)cc(-c2nc(-c3ccc(Cl)cn3)cs2)c1=O [Compound 377]	< 300	< 300		
CCOc1ccc(Cl)cc1-n1c(C=C(C)C)c(C(=O)N2CCNCC2)cc(-c2nc(-c3ccc(C(F)F)cc3)cs2)c1=O [Compound 378]	< 300	< 300		
CCc1ccc(F)cc1-n1c(C=C(C)C)c(C(=O)N2CCNCC2)cc(-c2nc(-c3ccc(C(F)F)cc3)cs2)c1=O [Compound 379]	< 300	< 300		
COc1ccc(OC)c(-n2c(C=C(C)C)c(C(=O)N3CCNCC3)cc(-c3nc(-c4ccc(Cl)cc4)cs3)c2=O)c1 [Compound 380]	< 300	< 300		
CCOc1ccc(F)cc1-n1c(C=C(C)C)c(C(=O)N2CCNCC2)cc(-c2nc(-c3ccc(Cl)cc3)cs2)c1=O [Compound 381]	< 300	< 300		
Cn1nccc1-n1c2c(cc(-c3nc(-c4ccc(Cl)cc4)cs3)c1=O)C(=O)CC(C)(C)C2 [Compound 382]	5000 to 20000	1000 to 5000		
COc1ccc(C(F)(F)F)cc1-n1c(C=C(C)C)c(C(=O)N2CCNCC2)cc(-c2nc(-c3ccc(Cl)cc3)cs2)c1=O [Compound 383]	300 to 1000	300 to 1000		
CC(C)=Cc1c(C(=O)N2CCNCC2)cc(-c2nc(-c3ccc(Cl)cc3)cs2)c(=O)n1-c1c(Cl)cccc1Cl [Compound 384]	< 300	< 300		
CCc1cccc(CC)c1-n1c(CC(C)C)c(C(=O)N2CCNCC2)cc(-c2nc(-c3ccc(Cl)cc3)c(C3CC3)s2)c1=O [Compound 385]	300 to 1000	< 300		
CCOc1ccc(C)cc1-n1c(C=C(C)C)c(C(=O)N2CCNCC2)cc(-c2nc(-c3ccc(C(F)F)cc3)cs2)c1=O [Compound 386]	< 300	< 300		
CCc1cccc(CC)c1-n1c(CC(C)C)c(C(=O)N2CCNCC2)cc(-c2nc(-c3ccc(Cl)cc3)c(C(=O)OC)s2)c1=O [Compound 387]	< 300	< 300		
CCc1cccc(CC)c1-n1c(C=C(C)C)c(C(=O)N2C[C@H]3CC[C@@H](C2)N3)cc(-c2nc(-c3ccc(Cl)cc3)cs2)c1=O [Compound 388]	< 300	< 300		
COc1ccc(Cl)c(-n2c(C=C(C)C)c(C(=O)N3CCNCC3)cc(-c3ccn(-c4ccc(Cl)cc4)n3)c2=O)c1 [Compound 389]	< 300	300 to 1000		
CCc1cccc(CC)c1-n1c(CC(C)C)c(CO)cc(-c2nc(-c3ccc(Cl)cc3)cs2)c1=O [Compound 391]	300 to 1000	300 to 1000		
CCc1cccc(CC)c1-n1c(O)c(C(=O)CC(C)C)cc(-c2nc(-c3ccc(Cl)cc3)cs2)c1=O [Compound 392]	5000 to 20000	5000 to 20000		
CCc1cccc(CC)c1-n1c(COCCOC)c(C(=O)N2CCNCC2)cc(-c2nc(-c3ccc(Cl)cc3)cs2)c1=O [Compound 393]	< 300	300 to 1000		

Structure (SMILES)	IC50 (IDH1 R132H; [1]) [nM]	IC50 (IDH1 R132C; [2]) [nM]	IC50 (IDH1 R132H; [3]) [nM]	IC50 (IDH1 R132C; [4]) [nM]
COc1ccc(Cl)c(-n2c3c(cc(-c4nc(-c5ccc(Cl)cc5)cs4)c2=O)C(=O)CC(C)(C)C3)c1 [Compound 395]	300 to 1000	< 300		
CCc1cccc(CC)c1-n1c(C=C(C)C)c(C(=O)N2CCNC(C(F)(F)F)C2)cc(-c2nc(-c3ccc(Cl)cc3)cs2)c1=O (centres unmarked) [Compound 396]	< 300	< 300		
COc1cccc(Cl)c1-n1c(C=C(C)C)c(C(=O)N2CCNCC2)cc(-c2nc(-c3ccc(Cl)cc3)cs2)c1=O [Compound 397]	< 300	< 300		
CCc1cccc(CC)c1-n1c(C2CCCC2)c(C(=O)N2CCNCC2)cc(-c2nc(-c3ccc(Cl)cc3)cs2)c1=O [Compound 398]	300 to 1000	< 300		
CC(C)=Cc1c(C(=O)N2CCNCC2)cc(-c2nc(-c3ccc(Cl)cc3)cs2)c(=O)n1-c1ccccc1OC(C)C [Compound 399]	< 300	< 300		
CCc1cccc(CC)c1-n1c(C)c(C(=O)N2CCNCC2)c(O)c(C(=O)Nc2nc(-c3ccc(Cl)cc3)cs2)c1=O [Compound 400]	> 20000	> 20000		
CC(C)=Cc1c(C(=O)N2CCNCC2)cc(-c2nc(-c3ccc(Cl)cc3)cs2)c(=O)n1-c1cc(C)cnc1OC(C)C [Compound 401]	< 300	< 300		
CC1(C)CC(=O)c2cc(-c3nc(-c4ccc(Cl)cc4)cs3)c(=O)n(-c3sccc3C#N)c2C1 [Compound 402]			300 to 1000	< 300
CCOCc1c(C(=O)N2CCNCC2)cc(-c2nc(-c3ccc(Cl)cc3)cs2)c(=O)n1-c1c(CC)cccc1CC [Compound 404]			< 300	< 300
CCc1cccc(CC)c1-n1c(CC(C)C)c(C(=O)N2CCNCC2)cc(-c2nc(-c3ccc(Cl)nc3)c(C)s2)c1=O [Compound 405]			< 300	< 300
CCc1ccc(N2CCN(C)CC2)c(CC)c1-n1c2c(cc(-c3nc(-c4ccc(Cl)cc4)cs3)c1=O)C(=O)CC(C)(C)C2 [Compound 406]			5000 to 20000	5000 to 20000
CCOc1ncc(Cl)cc1-n1c(C=C(C)C)c(C(=O)N2CCNCC2)cc(-c2nc(-c3ccc(C(F)F)cc3)cs2)c1=O [Compound 407]			< 300	300 to 1000
CCc1cccc(CC)c1-n1c(C=C(C)C)c(C(=O)N2CCNCC2)cc(-c2nc(-c3ccc(Cl)cc3)cs2)c1=O [Compound 408]			< 300	< 300
CC(C)=Cc1c(C(=O)N2CCNCC2)cc(-c2nc(-c3ccc(Cl)cc3)cs2)c(=O)n1-c1cc(F)ccc1Cl [Compound 409]			< 300	< 300
CCc1cccc(CC)c1-n1c(C=C(C)C)c(C(=O)N2CCNCC2C(=O)O)cc(-c2nc(-c3ccc(Cl)cc3)cs2)c1=O (centres unmarked) [Compound 410]			< 300	< 300
COc1cccc(CN2CCN(C)CC2)c1-n1c2c(cc(-c3nc(-c4ccc(Cl)cc4)cs3)c1=O)C(=O)CCC2 [Compound 411]			5000 to 20000	5000 to 20000
CCc1cccc(CC)c1-n1c(CC(C)C)c(C(=O)N2CCNCC2)cc(-c2nc(Nc3ccc(Cl)cc3)c(C)s2)c1=O [Compound 412]			5000 to 20000	5000 to 20000
C=Cc1sc(-c2cc(C(=O)N3CCNCC3)c(CC(C)C)n(-c3c(CC)cccc3CC)c2=O)nc1-c1ccc(Cl)cc1 [Compound 413]			300 to 1000	< 300
COc1cccc(OC)c1-n1c2c(cc(-c3nc(-c4ccc(Cl)cc4)cs3)c1=O)C(=O)CCC2 [Compound 414]			1000 to 5000	1000 to 5000
CCc1cccc(CC)c1-n1c(C=C(C)C)c(C(=O)N2CCNCC2)cc(-c2ccn(-c3ccc(OC4CC4)cc3)n2)c1=O [Compound 415]			< 300	< 300
CCc1ncc(OC)cc1-n1c(C=C(C)C)c(C(=O)N2CCNCC2)cc(-c2nc(-c3ccc(Cl)cc3)cs2)c1=O [Compound 416]			< 300	< 300
CCc1cccc(CC)c1-n1c(CC(C)C)c(C(=O)N2CCNCC2)cc(-c2ccnc(-c3ccc(Cl)cc3)n2)c1=O [Compound 417]			300 to 1000	300 to 1000
CCc1cccc(CC)c1-n1c(C=C(C)C)c(C(=O)N2CCNCC2)cc(-c2nc(-c3ccc(C(F)(F)F)nc3)cs2)c1=O [Compound 418]			< 300	< 300
